Reference: patent US11992499B2, “Quinoline derivatives for use in the treatment of inflammation diseases” (ABIVAX, priority 2018, dated 2024)

Key:
[1] = system: monocrotaline model of pulmonary arterial hypertension; test: Rat monocrotaline model of pulmonary arterial hypertension: mean pulmonary pressure; assay type: in vivo; conditions: for Effect on pulmonary pressure: pulmonary hypertension induced by monocrotaline; for Mean Pulmonary Pressure: MCT
Experimental: • 1. The experimental trace to be analyzed is opened in Clampfit. • 2. Right atria pressure is recorded for 1 minute • 3. PAP recorded continuously for at least 1 minute or until loss of signal, is used to extract the mean, diastolic, and systolic pulmonary pressure. • 4. The systemic arterial pressure (SAP) recorded continuously is used to extract the mean, diastolic and systolic arterial pressure. • 5. At the end of the hemodynamic parameters recording, the right and left ventricle including the septum and the lung lobes is excised to determine wet weights. • 6. Each parameter is compiled for each group and presented in bar graphs with appropriate statistical analysis.
The appropriate amount of monocrotaline is weighed and ⅓ of the correct volume of 1.0N HCl is added and mixed to ensure monocrotaline solubilisation. The solution is then neutralized with ⅓ of the correct volume of 1.0 N NaOH. The pH of the solution is checked with a pH indicator paper/strip or an electronic pH meter and adjusted to neutral as necessary; the final volume is completed with water for injection to obtain a solution of 20 mg/mL. The monocrotaline solution is injected subcutaneously, over the shoulders, into the loose skin over the neck, to each rat at 3 mL/kg of body weight (dose is 60 mg/kg).
Compound A was administered as a suspension in the vehicle. To reach the required concentrations, compound A was grounded to a fine powder, using a mortar and pestle, and then mixed with 20% (final volume) of vehicle A1 until a suspension was achieved. 80% of vehicle A2 was then added to the suspension under magnetic stirring.
The appropriate amount of Sildenafil is weighed and appropriate volume of distillated water is added to obtain suspension at 5 mg/mL. The suspension is mixed with a stir bar for 30-60 minutes until a homogenous suspension is achieved. Care is taken to maintain a uniform suspension (stirring continuously) whilst doses are being drawn up into gavage syringes. One gavage syringe is filled at a time and administered before filling the next syringe. The solutions are stored refrigerated at 2 to 8° C. and protected from light. The expiration date is set at 7 days after preparation.
Animals from Groups 2 to 5 (see Table 13) receive a single subcutaneous injection of monocrotaline (60 mg/kg) solution on Day 0 and returned to their cages. Animals from Group 1 receive one subcutaneous injection vehicle for MCT on Day 0 and returned to their respective cages.
Treatment with the compound A, sildenafil or vehicle is administered as of Day 7 (Groups 2-5) as scheduled and described in Table 13. The Groups 2-4 receive a single dose per day. The reference group 5 receives sildenafil twice a day. Food and water are given ad libitum. Daily observation of the behaviour and general health status of the animals is done. Weekly body weight is taken.
Surgical Instrumentation and Measurement of Hemodynamic and Functional Parameters in Efficacy Study Animals • 1. On the selected day of surgery, rats are anaesthetized with a mixture of 2 to 2.5% isoflurane USP (Abbot Laboratories, Montreal, Canada) in oxygen, and placed on a heating pad to maintain body temperature. • 2. Rats are tracheotomized and immediately ventilated by means of a positive-pressure rodent respirator set at ≈10 ml/kg bodyweight at a frequency of 65-70 strokes/min. • 3. Lead II ECG contact electrodes is placed on the rat to continuously monitor the ECG during the surgical procedure. • 4. A cannula connected to a pressure transducer is inserted into the left femoral artery to measure the arterial blood pressure. • 5. A cannula connected to a pressure transducer is inserted into the right atria through the right jugular vein to measure the right atria pressure. • 6. The heart is exposed through a sternotomy and a 20GA 1.16 in Insyte is introduced into the right ventricle and rapidly hooked up to a saline filled PE-50 catheter connected to a transducer. • 7. […]

[2] = system: STAM model of non-alcoholic steatohepatitis; test: STAM model of NASH: F4/80 immunostaining; assay type: in vivo, mice; conditions: for F4/80-positive area (mean ± SD): n = 8
Experimental: NASH was induced in 48 male mice by a single subcutaneous injection of 200 μg streptozotocin (STZ, Sigma-Aldrich, USA) solution 2 days after birth and feeding with high fat diet (HFD, 57 kcal % fat, Cat #HFD32, CLEA Japan, Inc., Japan) after 4 weeks of age.
Compound A was administered at 3 dose levels of 10, 20 and 40 mg/kg once daily from 6 to 9 weeks of age. Compound B was administered at a dose of 40 mg/kg once daily from 6 to 9 weeks of age. Telmisartan was administered at a dose of 10 mg/kg once daily from 6 to 9 weeks of age.

SMILES | Effect on pulmonary pressure ([1]; female rat) | F4/80-positive area in the liver ([2]; summary statement, dose not stated) | Mean Pulmonary Pressure ([1]; female rat, 70 mg/kg QD gavage Day 7 to Day 28, n = 7) [mmHg] | Mean Pulmonary Pressure ([1]; female rat, 120 mg/kg QD gavage Day 7 to Day 28, n = 11) [mmHg] | Effect on pulmonary pressure ([1]; male rat) | F4/80-positive area (mean ± SD) ([2]; 10 mg/kg PO QD, 6-9 wks of age (Compound A low, Telmisartan groups)) [%] | F4/80-positive area compared with the Vehicle group ([2]; 20 mg/kg PO QD (Compound A middle group)) | F4/80-positive area (mean ± SD) ([2]; 20 mg/kg PO QD, 6-9 wks of age (Compound A middle group)) [%] | F4/80-positive area compared with the Vehicle group ([2]; 40 mg/kg PO QD (Compound A high, Compound B groups)) | F4/80-positive area (mean ± SD) ([2]; 40 mg/kg PO QD, 6-9 wks of age (Compound A high, Compound B groups)) [%]
FC(F)(F)Oc1ccc(Nc2ccc3cccc(Cl)c3n2)cc1 [8-Chloro-N-(4-(trifluoromethoxy)phenyl)quinolin-2-amine] | reduces significantly | decreased | – | – | – | – | – | – | – | –
FC(F)(F)Oc1ccc(Nc2ccc3cccc(Cl)c3n2)cc1 [Compound A, 8-Chloro-N-(4-(trifluoromethoxy)phenyl)quinolin-2-amine] | reduces significantly | – | 22.2 | 16.9 | no effect | 2.22 ± 0.46 | tended to decrease | 1.88 ± 0.62 | significant decrease | 1.53 ± 0.77
